melting point | SMILES
112 to 115 °C | Brc1ccc2c(c1)CC(N1CCNCC1)c1ccccc1S2 (stereo not drawn)
55 to 57 °C | CCN1c2ncc(CN(C)c3ccccc3)cc2C(=O)N(C)c2ccc(Cl)nc21
198 °C | NCC(=O)Nc1ccc([N+](=O)[O-])cc1C(=NO)c1ccccc1F
183 °C | O=S1(=O)c2cccc3cccc(c23)N1CCCN1CCC(CC2CCc3ccccc32)CC1 (stereo not drawn)
174 to 175 °C | CCOC(=O)c1c(CN(C)c2ccccn2)nc2cc(OC)c(OC)cc2c1-c1ccc(OC)c(OC)c1
190 to 191 °C | COc1ccc(N2CCN(Cc3n[nH]c4c(Cl)cccc34)CC2)cc1
201 to 202 °C | Cc1noc(NC(=O)N2CCN(c3nc(-c4cccc(Cl)c4)cs3)CC2)c1C
197 °C | O=C(O)COc1cccc2c1CCC(CCn1cnc(-c3ccccc3)c1-c1ccccc1)C2 (stereo not drawn)
180 to 182 °C | CCOC(=O)c1cn(C)c2nc3cc(N4CCNC(c5ccc(N)cc5)C4)c(F)cc3cc2c1=O (racemic)
210 to 212 °C | Cc1cc2c(cc1CN1CCN(C)CC1)-c1[nH]nc(-c3ccsc3)c1C2
84 °C | COC(=O)CCCc1cc2cc(C(F)(F)F)ccc2n1S(=O)(=O)c1cccc(C(C)(C)C)c1
149 to 151 °C | CN(C)c1cccc(Cc2cc3cccc(-c4cccc(C(=O)NCC(N)=O)c4)c3s2)c1
168 to 169 °C | COCCOc1ccc(/C=C/C(=O)NS(=O)(=O)c2ccccc2Cl)c(Oc2ncc(C(F)(F)F)cc2Cl)c1
119 to 120 °C | CCC(C)(C)C(=O)Oc1cccc2ccc(OCCOc3ccc(C(=O)C(=O)OC)cc3)cc12
154 to 156 °C | NS(=O)(=O)c1cc(C(=O)c2csc3ccccc23)ccc1Cl
226 to 227 °C | O=C1N(Cc2ccc(O)cc2)c2ccccc2C12COc1cc3c(cc12)CCO3 (stereo not drawn)
95.5 to 97 °C | CCCOc1ccccc1-c1nc(OCC)cc(=O)[nH]1
110 °C | CC(C)CNC(=O)c1ccc(C2CC2c2ccc(Cl)cc2)cc1 (stereo not drawn)
188 to 193 °C | CC(CCn1c(=O)[nH]c2cc(F)ccc21)N1CCN(c2ccc(F)cc2)CC1 (stereo not drawn)
261 to 263 °C | CON1C(=O)CC2(CCN(C(=O)C3=C(C)NC(C)=C([N+](=O)[O-])C3c3ccccc3C(F)(F)F)CC2)C1=O (stereo not drawn)
137 to 140 °C | Nc1sc2c(c1C(=O)c1cccc3ccccc13)CCCC2
50 to 52 °C | C=C(CC(=O)OCC)c1cc(F)c2cc(OC)ccc2c1
147 °C | Cc1ccc(NC(=O)c2ccc(C(=O)Nc3ccccc3N)cc2)cc1Nc1nc(-c2cccnc2)cs1
206 °C | O=C(O)c1sc(C(c2ccc(Cl)cc2)c2c(Cl)cc(-n3ncc(=O)[nH]c3=O)cc2Cl)nc1-c1ccccc1 (stereo not drawn)

Second part, the compound before the results:

SMILES | melting point
O=C(CCCO)c1ccc(CCNS(=O)(=O)c2ccccc2)cc1 | 89 to 90 °C
COc1ccc(NC(=S)NCC(OC)OC)cc1 | 215 to 217 °C
COc1nc(C)nc(NC(=O)NS(=O)(=O)c2cccnc2OCC2CC2)n1 | 165 to 167 °C
CC(=O)Nc1ccc(OCC(O)CNC(C)(C)C)c(C2=NNC(=O)CC2)c1 (stereo not drawn) | 102 to 109 °C
Oc1c(Cl)c(Cl)c(-c2c(Cl)c(Cl)c(O)c(Cl)c2Cl)c(Cl)c1Cl | 94 to 96 °C
O=C1Cc2cc(NC(=O)C(=O)O)ccc2N1 | 256 °C
O=c1c2ccccc2sn1-c1ccccc1 | 140 to 141 °C
O=[N+]([O-])c1ccc(CCS(=O)(=O)NCc2ccccc2)cc1 | 125 to 127 °C
COCCN1CCN(c2ccc(C(=O)NC3(C(=O)NCC#N)CCCCC3)cc2)CC1 | 166 to 168 °C
COc1cc(COc2nn(-c3ccccc3)cc2/C=C/c2nnco2)ccc1OCc1nc(-c2ccco2)oc1C | 162 to 163 °C
CC(Cc1ccc(C(=O)C(C)(C)O)cc1)C(=O)O (stereo not drawn) | 57 °C
CCCCCCCCc1ccc(CCC(NC(C)=O)(C(O)OC(C)=O)C(O)OC(C)=O)cc1 (stereo not drawn) | 105 to 107 °C
CCS(=O)(=O)C1C(OC)(OC)CC2C3CCC4=CC(=O)C=CC4(C)C3(F)C(O)CC21C (stereo not drawn) | 268 to 270 °C
Cc1c(C#N)c(N)n(-c2c(Br)cc(C(F)(F)F)cc2Br)c1C | 158 to 161 °C
Cc1cc(C)c(C(=O)O)c(C)c1C | 164 to 167 °C
CCOC1=CC2=CCC3C(CCC4(CC)C(=O)CC(OC(C)=O)C34)C2CC1 (stereo not drawn) | 189 °C
COc1c(C(=O)O)cc([N+](=O)[O-])c2ccccc12 | 102 to 104 °C
N#CCN1CCN(c2n[nH]c3ccccc23)CC1 | 121 to 123 °C
CC(=O)c1ccc2nccc(OS(=O)(=O)C(F)(F)F)c2c1 | 94 °C
COc1ccc(-c2cccc(C3=CCC(OC(Cc4ccccc4)C(=O)O)(c4c(Cc5ccccc5)oc5ccccc45)C=C3)c2)cc1 (stereo not drawn) | 73 to 75 °C
COc1ccc(Cl)c2c1[nH]c(=O)n1nc(CO)cc21 | 221 to 222 °C
Cc1ccc(C(OS(=O)(=O)c2c(C)cc(C)c(S(=O)(=O)OC(c3ccc(C)cc3)(C(F)(F)F)C(F)(F)F)c2C)(C(F)(F)F)C(F)(F)F)cc1 | 178 °C

SMILES | melting point
O=[N+]([O-])c1ccc(N=Nc2ccc(O)c(CO)c2)cc1 | 178 to 179 °C
CN(Cc1ccc(NC(=O)/C=C/c2ccc(-c3ccc(C(C)(C)C)cc3)s2)cc1)C1CCOCC1 | 216 to 220 °C
O=c1[nH]c(=O)n(C2CC(OCc3ccccc3)C(COC(c3ccccc3)(c3ccccc3)c3ccccc3)O2)cc1F (stereo not drawn) | 138 to 139 °C
Nc1nc(Cl)c2c(n1)CCCS2 | 196 to 198 °C
CNC(=O)c1cc(C#N)cc(Cl)c1NC(=O)c1cc(Cl)nn1-c1ncccc1Cl | 197 to 200 °C
N#CC(SCCc1ccc2c(c1)OCO2)C(=O)O (stereo not drawn) | 106 to 107 °C
CC(C)(C)c1cc2c(c(C(C)(C)C)c1)OP(Cl)Oc1c(cc(C(C)(C)C)cc1C(C)(C)C)C2 | 227 to 230 °C
Cc1cc(C#N)cc(CNc2c(NC(C)(C)C)c(=O)c2=O)c1 | 253 to 255 °C
Cc1c(Cl)nc2c(C=O)cnn2c1Cl | 137 to 139 °C
Oc1ccc(-c2nnc(CSCCOc3ccccc3)n2Cc2ccccc2)cc1 | 64 to 66 °C
Nc1ccn([C@@H]2C[C@H](CO)[C@@H](O)[C@H]2O)c(=O)n1 | 214 °C
Cc1cc(C)nc(S(=O)(=O)Nc2c(C)cccc2Cl)n1 | 215 to 219 °C
NC(=O)N(O)CCNC(=O)c1ccc(Oc2ccccc2)cc1 | 185 to 186 °C
CCC(CC)NC(=O)NC/C=C\COc1cc(CN2CCCCC2)ccn1 | 82 to 84 °C
CN(C)c1cc(N2C(=O)C3=C(CCCC3)C2=O)ccc1Cl | 124 to 127 °C
COc1ccc2c(c1)Sc1c(cc(OC)c(O)c1Br)N2C | 154 to 155 °C
CCN(CC)c1ccc(C2(c3ccc(N(C)C)cc3N(C)C)OC(=O)c3c(Cl)c(Cl)c(Cl)c(Cl)c32)cc1 (stereo not drawn) | 206 to 208 °C
COC(=O)c1cnc(N)nc1OC | 221 °C
COC(=O)c1sc(C)c(Br)c1SC(=O)N(C)C | 175 to 176 °C
CC(C)(C)NCC(O)c1cc(O)ccc1Cl (stereo not drawn) | 162 to 163 °C
Nc1c(Cl)cc(Nc2ncnc3cnc(N[C@H]4CC[C@H](C(=O)N5CCCC5)CC4)nc23)cc1Cl | 228 to 230 °C
N#Cc1ccc(N(Cc2ccccc2)n2cnnc2)cc1-c1ccc(OS(N)(=O)=O)cc1 | 157 to 160 °C

Reference: a melting point compilation (Tetko et al.; mined from patent text by program, amines drawn as free bases though some values may be those of a salt)
